# From publication PMC12257394, “Design, Synthesis, and Biological Evaluation of Ferrocenyl–Cyclo-(Gly‑L‑Pro) Hybrids Sensitizing Multidrug-Resistant Cancer Cells to Anticancer Agents” (ACS Medicinal Chemistry Letters, 2025)
# What was measured:
# SW620 cells [1] = assay: Neutral red uptake viability assay, SW620; format: cell-based, human; conditions: SW620, substance alone (xlsx), read-out: SW620 IC50
# Protocol: (§1) To evaluate this aspect, we investigated the viability of SW620 colon cancer cells and their multidrug-resistant variants (overexpressing ABCB1, ABCC1, and ABCG2) exposed to 1 and 10 μM 4a–e using a neutral red uptake assay (Table ). In general, compounds 4a–e exerted little or no cytotoxic effect on either SW620 or multidrug-resistant sublines even at 10 μM, with the remarkable exception of SW620C (cisplatin-selected variant of SW620) cells, which turned out to be relatively susceptible toward ferrocenyl 4a–c. […] This trend may reflect steric or electronic contributions to cellular uptake or interaction with intracellular targets. […] However, since E/Z isomeric data are currently available only for compound 4c, this hypothesis requires validation. To quantify this effect, IC50 values were determined (Table ). […]
# (§2) The normal lung fibroblast MRC-5 and colorectal adenocarcinoma SW620 cell lines used in this experiment were purchased from American Type Culture Collection (USA) via LGC […]
# (§3) Standards. Multidrug-resistant variants of SW620 cells were developed in our laboratory as described previously.10, 11 All cells were cultured under standard conditions (37°C, 5% CO2, 100% humidity) in high-glucose DMEM supplemented with GlutaMaxTM, HEPES (ThermoFisher Scientific, USA), and 10% fetal bovine serum (EURx, Poland). Cells were routinely tested for potential Mycoplasma contamination using the MycoProbe Mycoplasma Detection kit (R&D System, USA).
# (§4) In total, 104 cells in 100 µL of complete medium were plated per well of a 96-well plate and left overnight to allow cells to adhere to the surface. Then, the cells were exposed to a desired concentration of tested compound(s). Stock solutions were prepared in DMSO and used immediately. The final DMSO concentration was constant and nontoxic (0.1% v/v). After 70-h incubation, neutral red was added to the final concentration of 1 mM. After another 2 h, the medium was aspirated, and cells were washed twice with PBS. Dye was released using 100 µL of a solubilizer (1% acetic acid in 50% ethanol) on an orbital shaker (10 min). Absorbance was read at 540 nm using EnVision Multilabel Plate Reader (Perkin Elmer, USA). Results were expressed as % of control. The IC50 parameters were calculated using GraphPad Prism version 10 (GraphPad Software, Boston, Massachusetts USA). […]
# (§5) All experiments were performed in triplicate (n = 3).
# SW620 cells [2] = assay: MDR reversal assay (coadministration with anticancer drug), SW620; format: cell-based, human; conditions: SW620, drug alone, n = 3
# Description: (§6) We investigated the potency of 4a–e to inhibit ABC transporters (ABCB1, ABCC1, and ABCG2) by determining their enhancement of reversal potency (ERP) values. ERP represents fold changes in the IC50 values of anticancer drugs in multidrug-resistant cancer sublines (ABCB1-overexpressing SW620D, SW620E, and SW620V; ABCC1-overexpressing SW620M; ABCG2-overexpressing SW620C and SW620Mito) exposed to a combination of the investigated compounds and anticancer agents at equimolar concentrations, compared with values obtained with drugs alone (Tables S2 and S3 and Figure ).
# as §3
# (§7) In total, 104 cells in 100 µL of complete medium were plated per well of a 96-well plate and left overnight to allow cells to adhere to the surface. Then, the cells were exposed to a desired concentration of tested compound(s). Stock solutions were prepared in DMSO and used immediately. The final DMSO concentration was constant and nontoxic (0.1% v/v). After 70-h incubation, neutral red was added to the final concentration of 1 mM. After another 2 h, the medium was aspirated, and cells were washed twice with PBS. Dye was released using 100 µL of a solubilizer (1% acetic acid in 50% ethanol) on an orbital shaker (10 min). Absorbance was read at 540 nm using EnVision Multilabel Plate Reader (Perkin Elmer, USA). Results were expressed as % of control. The IC50 parameters were calculated using GraphPad Prism version 10 (GraphPad Software, Boston, Massachusetts USA).
# (§8) The enhancement of reversal potency (ERP) value determination
# (§9) For MDR reversal assays, cytotoxic agents were co-administered with compounds 4a–4e at equimolar concentrations in a range of 10 nM to 100 µM. IC₅₀ values were determined in ABCB1-overexpressing SW620 cell line variants. The enhancement of reversal potency (ERP) was calculated using the following formula: ERP = IC₅₀(drug)MDR / IC₅₀(drug + compound)MDR. All experiments were performed in triplicate (n = 3).
# [3] = system: ABCG2-overexpressing SW620C cells; assay: MDR reversal assay (ERP), SW620C; format: cell-based, human; conditions: SW620C, drug alone, n = 3
# Description: as §6, §3, §7, §8, §9
# [4] = system: SW620D cells (doxorubicin-resistant); assay: Neutral red uptake viability assay, SW620D; format: cell-based, human; conditions: Homo sapiens, substance alone (xlsx), read-out: SW620D IC50
# Protocol: as §1, with “In” for “To evaluate this aspect, we investigated the viability of SW620 colon cancer cells and their multidrug-resistant variants (overexpressing ABCB1, ABCC1, and ABCG2) exposed to 1 and 10 μM 4a–e using a neutral red uptake assay (Table ). In”
# as §2, §3, §7, §8, §9
# [5] = system: SW620E cells (etoposide-resistant); assay: Neutral red uptake viability assay, SW620E; format: cell-based, human; conditions: Homo sapiens, substance alone (xlsx), read-out: SW620E IC50
# Protocol: as §1, §2, §3, §4, §5
# [6] = system: ABCB1-overexpressing SW620E cells; assay: MDR reversal assay (ERP), SW620E; format: cell-based, human; conditions: Homo sapiens; SW620E, drug alone, n = 3
# Description: as §6, §3, §7, §8, §9
# [7] = system: SW620M cells (methotrexate-resistant); assay: Neutral red uptake viability assay, SW620M; format: cell-based, human; conditions: Homo sapiens, substance alone (xlsx), read-out: SW620M IC50
# Protocol: as §1, with “In” for “To evaluate this aspect, we investigated the viability of SW620 colon cancer cells and their multidrug-resistant variants (overexpressing ABCB1, ABCC1, and ABCG2) exposed to 1 and 10 μM 4a–e using a neutral red uptake assay (Table ). In”
# as §2, §3, §4, §5
# [8] = system: ABCC1-overexpressing SW620M cells; assay: MDR reversal assay (ERP), SW620M; format: cell-based, human; conditions: Homo sapiens; SW620M, drug alone, n = 3
# Description: as §6, §3, §7, §8, §9
# [9] = system: SW620Mito cells (mitoxantrone-resistant); assay: Neutral red uptake viability assay, SW620Mito; format: cell-based, human; conditions: Homo sapiens, substance alone (xlsx), read-out: SW620Mito IC50
# Protocol: as §1, with “In” for “To evaluate this aspect, we investigated the viability of SW620 colon cancer cells and their multidrug-resistant variants (overexpressing ABCB1, ABCC1, and ABCG2) exposed to 1 and 10 μM 4a–e using a neutral red uptake assay (Table ). In”
# as §2, §3, §4, §5
# [10] = system: ABCG2-overexpressing SW620Mito cells; assay: MDR reversal assay (ERP), SW620Mito; format: cell-based, human; conditions: Homo sapiens; SW620Mito, drug alone, n = 3
# Description: as §6, §3, §7, §8, §9
# MRC-5 fibroblasts = assay: Neutral red uptake viability assay, MRC-5; format: cell-based, human; conditions: MRC-5, 10 μM, 72 h exposure, n = 3, ± SD
# Protocol: as §2, §3, §4, §5
# [11] = system: SW620V cells (vincristine-resistant); assay: Neutral red uptake viability assay, SW620V; format: cell-based, human; conditions: Homo sapiens, substance alone (xlsx), read-out: SW620V IC50
# Protocol: as §1, with “In” for “To evaluate this aspect, we investigated the viability of SW620 colon cancer cells and their multidrug-resistant variants (overexpressing ABCB1, ABCC1, and ABCG2) exposed to 1 and 10 μM 4a–e using a neutral red uptake assay (Table ). In”
# as §2, §3, §7, §8, §9
# [12] = system: ABCB1-overexpressing SW620V cells; assay: MDR reversal assay (ERP), SW620V; format: cell-based, human; conditions: Homo sapiens; SW620V, drug alone, n = 3
# Description: as §6, §3, §7, §8, §9
# [13] = system: ABC-overexpressing cancer cells; set-up: method as in PMID 27326336; conditions: earlier finding; citation mark lost in the text, probably ref 20; cited from earlier work
smiles,measurement,setting,value
"N.N.[Cl][Pt][Cl] [Cisplatin, reference compound]",IC50,SW620 cells [1],4340 nM
same,IC50,SW620 cells [2],4340 nM
same,IC50,[3],27.9 µM
"COc1cccc2c1C(=O)c1c(O)c3c(c(O)c1C2=O)C[C@@](O)(C(=O)CO)C[C@@H]3O[C@H]1C[C@H](N)[C@H](O)[C@H](C)O1 [Doxorubicin, reference compound]",IC50,"SW620 cells [1]; Homo sapiens, SW-620",342 nM
same,IC50,[4],4.26 µM
same,IC50,"SW620 cells [2]; Homo sapiens, SW-620",342 nM
"COc1cc([C@@H]2c3cc4c(cc3[C@@H](O[C@@H]3O[C@@H]5CO[C@@H](C)O[C@H]5[C@H](O)[C@H]3O)[C@H]3COC(=O)[C@H]23)OCO4)cc(OC)c1O [Etoposide, reference compound]",IC50,"SW620 cells [1]; Homo sapiens, SW-620",2600 nM
same,IC50,[5],16 µM
same,IC50,"SW620 cells [2]; Homo sapiens, SW-620",2600 nM
same,IC50,[6],16 µM
"CN(Cc1cnc2nc(N)nc(N)c2n1)c1ccc(C(=O)N[C@@H](CCC(=O)O)C(=O)O)cc1 [Methotrexate, reference compound]",IC50,"SW620 cells [1]; Homo sapiens, SW-620",6280 nM
same,IC50,[7],54.1 µM
same,IC50,"SW620 cells [2]; Homo sapiens, SW-620",6280 nM
same,IC50,[8],54.1 µM
"O=C1c2c(O)ccc(O)c2C(=O)c2c(NCCNCCO)ccc(NCCNCCO)c21 [Mitoxantrone, reference compound]",IC50,"SW620 cells [1]; Homo sapiens, SW-620",151 nM
same,IC50,[9],6.36 µM
same,IC50,"SW620 cells [2]; Homo sapiens, SW-620",151 nM
same,IC50,[10],6.36 µM
"COc1ccc2c(C[C@@H]3NC(=O)[C@@H]4CCCN4C3=O)c(CC=C(C)C)[nH]c2c1 [TrpA, tryprostatin A, reference compound]",survival rate,MRC-5 fibroblasts,97 ± 11%
"CC[C@]1(O)C[C@H]2CN(CCc3c([nH]c4ccccc34)[C@@](C(=O)OC)(c3cc4c(cc3OC)N(C=O)[C@H]3[C@@](O)(C(=O)OC)[C@H](OC(C)=O)[C@]5(CC)C=CCN6CC[C@]43[C@@H]65)C2)C1 [Vincristine, reference compound]",IC50,"SW620 cells [1]; Homo sapiens, SW-620",125 nM
same,IC50,[11],24.3 µM
same,IC50,"SW620 cells [2]; Homo sapiens, SW-620",125 nM
same,IC50,[12],24.3 µM
CC(C)(C)c1[nH]cnc1/C=c1\[nH]c(=O)/c(=C/c2ccccc2)[nH]c1=O [plinabulin],activity against ABC-overexpressing cancer cells,[13],inactive
